Values joined by “and” are separate entries in the source; they are usually repeats but may differ in a detail not shown here. Equal values may be shown once. Read-outs that look alike come from different tables or passages of the source.
Key:
rat GPR40 = target: T1, rat GPR40 (Rattus norvegicus, UniProt Q8K3T4); assay: Rat GPR40 IP1 accumulation assay; format: cell-based
T1 construct: expressed in transfected cells; host or cells: CHO-K1 (methods)
Description: (§1) Stable cell lines expressing human GPR40 (hGPR40/HEK293), mouse GPR40 (mGPR40/CHO-K1), and rat GPR40 (rGPR40/CHO-K1) were cultured in DMEM media supplemented with 10% FBS, glutamine, non-essential amino acids, and penicillin/streptomycin. hGPR40/HEK293 & mGPR40/CHO-K1 cell media was supplemented with […] G418 (Life Technologies), while rGPR40/CHO-K1 cells were grown in […] blasticidin plus […] hygromycin (Life Technologies). Cell stocks were maintained and grown in a sub-confluent state using standard cell culture procedures. The day before the experiment, the cells were harvested with non-enzymatic cell dissociation buffer and re-suspended in DMEM supplemented with 10% FBS, glutamine, non-essential amino acids, penicillin/streptomycin at 0.15, 0.2 and 0.3 million cells per ml for human, mouse, and rat GPR40, respectively. […] The seeded plates were incubated overnight at 37 C.
(§2) On the day of the experiment, the growth media was removed from the assay by gently patting the assay plates on an absorbent sheet and 10 μl of IP1 stimulation buffer (Cis Bio IP-one Tb HTRF kit) supplemented with 50 mM LiCl is added to each well. Test compounds dissolved in DMSO were serially diluted in ½ log increments starting from 2 mM or 0.2 mM and 50 nl of the compound dilution was acoustically added to each well (final starting concentration 10 μM or 1 μM). Plates were then incubated for 60 minutes at room temperature and 10 μl of detection buffer (prepared as described in the Tb kit) is added to each well. The plates are then incubated one additional hour at room temperature. […] For each assay, a standard curve plate in which IP1 is titrated is also included. […] The percent activity at each concentration of test compound is determined using 0% activation (basal activity) determined in those wells that contain DMSO alone, while 100% activity is determined in wells that contained a concentration of a partial allosteric agonist know to activate GPR40. The % activity is then plotted versus the concentration of test compound and the dose response curve fitted to a standard 4-parameter non-linear regression model using a custom in-house developed software package (Merck & Co., Inc., MRL, Kenilworth, NJ, USA). Maximal % activity and EC50 are then determined for each test compound.

mouse GPR40 = target: T2, mouse GPR40 (Mus musculus, UniProt Q76JU9); assay: Mouse GPR40 IP1 accumulation assay; format: cell-based
T2 construct: expressed in transfected cells; host or cells: CHO-K1 (methods)
Description: as §1, §2

human GPR40 [1] = target: T3, human GPR40 (Homo sapiens, UniProt O14842); assay: Human GPR40 IP1 accumulation assay; format: cell-based; parameters: expressed in transfected cells
Description: as §1, §2

human GPR40 [2] = target: T3, human GPR40; assay: GPR40 binding assay, partial agonist tracer [3H]L358; parameters: expressed in transfected cells; host or cells: CHO / CHO-K1 cells, membrane preparation; details: radioligand L-001533358;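 on %Bound: 100% is tracer binding with DMSO alone and 0% is full displacement by a standard compound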
Description: Two small molecule tracers, the partial agonist [3H][…] and the AgoPAM [3H]25, are used to measure compound affinity at each site as described previously. Because of the allosteric coupling of the two sites and the nature of the assay, addition of a compound will either displace (binds to same site) or augment (binds to allosterically coupled site) radiotracer. Membranes expressing GPR40 were prepared from CHO cells stably expressing human GPR40. […] Sigma P8830) and were homogenized in 50 ml aliquots with a motor-driven glass Dounce homogenizer, 15 strokes at 1900 rpm on wet ice, repeating once. Homogenates were centrifuged at 2200 rpm for 10 min at 4°C. Supernatants were carefully removed and pooled. Homogenization and centrifugation were repeated until the debris pellet was translucent to maximize membrane recovery. Supernatants were then centrifuged at […] rpm for 20 min. at 4°C. […] Protein concentration was determined by Pierce BCA kit. […] The beads and membrane mixture is then vigorously mixed for 30 minutes at room temperature prior to addition to the assay. […] Next, 15 μl of the radioligand and 35 μl of the beads/membranes solution is added to each well. The assay plates are then sealed and incubated for 30 minutes at room temperature on an orbital shaker. The plates are allowed to settle for 16 hours and then counted on a TopCount scintillation counter (PE). […] Maximal % bound and IC50 are then determined for each test compound. 5 μg/well membrane together with 200 μg/well of PVT WGA SPA beads (GE #RPNG-0001) were suspended in a white 96 well plate with a final concentration of 50 μl/well in assay buffer (50 mM Tris, 10 mM MgCl2, and 2 mM EDTA). […] The plate is briefly mixed and incubated for 3-18 h at room temperature, before it is read on a MicroBeta plate counter (Perkin Elmer, MS, USA).

[3] = maximal % activity vs in-house partial agonist control

T3 sequence (O14842 whole entry): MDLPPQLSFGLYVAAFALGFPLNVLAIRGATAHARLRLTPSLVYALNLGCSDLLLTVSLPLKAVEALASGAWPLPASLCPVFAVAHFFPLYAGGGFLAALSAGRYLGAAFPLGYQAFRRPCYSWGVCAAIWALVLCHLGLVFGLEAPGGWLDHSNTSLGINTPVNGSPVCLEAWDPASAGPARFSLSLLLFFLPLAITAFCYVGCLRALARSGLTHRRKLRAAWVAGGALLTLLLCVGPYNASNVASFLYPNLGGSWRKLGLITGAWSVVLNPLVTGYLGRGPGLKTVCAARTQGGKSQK
T1 sequence (Q8K3T4 whole entry): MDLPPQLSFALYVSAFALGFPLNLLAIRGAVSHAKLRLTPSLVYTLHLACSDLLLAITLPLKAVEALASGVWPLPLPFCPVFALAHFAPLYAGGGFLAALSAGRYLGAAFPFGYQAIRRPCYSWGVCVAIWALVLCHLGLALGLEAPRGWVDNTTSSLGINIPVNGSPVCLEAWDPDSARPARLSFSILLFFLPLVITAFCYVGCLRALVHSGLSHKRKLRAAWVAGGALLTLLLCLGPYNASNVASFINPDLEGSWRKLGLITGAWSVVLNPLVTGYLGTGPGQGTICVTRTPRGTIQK
T2 sequence (Q76JU9 whole entry): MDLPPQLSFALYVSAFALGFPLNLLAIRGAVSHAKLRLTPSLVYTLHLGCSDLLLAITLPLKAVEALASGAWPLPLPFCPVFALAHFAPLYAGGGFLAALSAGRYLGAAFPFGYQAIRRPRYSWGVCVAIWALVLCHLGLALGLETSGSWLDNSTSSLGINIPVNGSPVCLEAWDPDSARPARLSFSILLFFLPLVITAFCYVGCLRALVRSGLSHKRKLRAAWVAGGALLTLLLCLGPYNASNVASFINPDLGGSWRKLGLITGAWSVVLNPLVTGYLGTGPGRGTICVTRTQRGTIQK

Rat GPR40 Receptor Activation (%) (rat GPR40; dose 1.00E-06 M): 370% | Rat GPR40 Receptor Activation (%) (rat GPR40; dose 1.50E-11 M): -18% | Rat GPR40 Receptor Activation (%) (rat GPR40; dose 1.56E-08 M): 132% | Rat GPR40 Receptor Activation (%) (rat GPR40; dose 2.44E-10 M): 11% | Rat GPR40 Receptor Activation (%) (rat GPR40; dose 2.50E-07 M): 361% | Rat GPR40 Receptor Activation (%) (rat GPR40; dose 3.91E-09 M): 23% | Rat GPR40 Receptor Activation (%) (rat GPR40; dose 4.00E-12 M): -6% | Rat GPR40 Receptor Activation (%) (rat GPR40; dose 6.10E-11 M): 2% | Rat GPR40 Receptor Activation (%) (rat GPR40; dose 6.25E-08 M): 275% | Rat GPR40 Receptor Activation (%) (rat GPR40; dose 9.77E-10 M): 18% | Rat GPR40 Functional Assay %Act (rat GPR40; individual replicates (n)): 380% and 366% | EC50 (rat GPR40; individual replicates (n), read-out: Rat GPR40 Functional Assay EC50): 26 nM and 56 nM | Efficacy (% Activation), Rat (rat GPR40; [3]): (373%) | EC50 (rat GPR40; mean ± SD, n = 2–20, IP accumulation, read-out: Potency [EC50, nM] ± SD, Rat): 41 ± 21 nM | Mouse GPR40 Receptor Activation (%) (mouse GPR40; dose 1.00E-06 M): 394% | Mouse GPR40 Receptor Activation (%) (mouse GPR40; dose 1.50E-11 M): -7% | Mouse GPR40 Receptor Activation (%) (mouse GPR40; dose 1.56E-08 M): 156% | Mouse GPR40 Receptor Activation (%) (mouse GPR40; dose 2.44E-10 M): 2.81% | Mouse GPR40 Receptor Activation (%) (mouse GPR40; dose 2.50E-07 M): 318% | Mouse GPR40 Receptor Activation (%) (mouse GPR40; dose 3.91E-09 M): 67% | Mouse GPR40 Receptor Activation (%) (mouse GPR40; dose 4.00E-12 M): -8.43% | Mouse GPR40 Receptor Activation (%) (mouse GPR40; dose 6.10E-11 M): 3.63% | Mouse GPR40 Receptor Activation (%) (mouse GPR40; dose 6.25E-08 M): 254% | Mouse GPR40 Receptor Activation (%) (mouse GPR40; dose 9.77E-10 M): 19% | Mouse GPR40 Functional Assay %Act (mouse GPR40; individual replicates (n)): 406% and 397% | EC50 (mouse GPR40; individual replicates (n), read-out: Mouse GPR40 Functional Assay EC50): 44 nM and 28 nM | Efficacy (% Activation), Mouse (mouse GPR40; [3]): (402%) | EC50 (mouse GPR40; mean ± SD, n = 2–20, IP accumulation, read-out: Potency [EC50, nM] ± SD, Mouse): 36 ± 11 nM | Human GPR40 Receptor Activation (%) (human GPR40 [1]; dose 2.00E-06 M): 237% | Human GPR40 Receptor Activation (%) (human GPR40 [1]; dose 2.00E-07 M): 246% | Human GPR40 Receptor Activation (%) (human GPR40 [1]; dose 2.00E-08 M): 186% | Human GPR40 Receptor Activation (%) (human GPR40 [1]; dose 2.00E-09 M): 90% | Human GPR40 Receptor Activation (%) (human GPR40 [1]; dose 2.00E-10 M): 5.57% | Human GPR40 Receptor Activation (%) (human GPR40 [1]; dose 6.00E-07 M): 204% | Human GPR40 Receptor Activation (%) (human GPR40 [1]; dose 6.00E-08 M): 223% | Human GPR40 Receptor Activation (%) (human GPR40 [1]; dose 6.00E-09 M): 129% | Human GPR40 Receptor Activation (%) (human GPR40 [1]; dose 6.00E-10 M): 27% | Human GPR40 Receptor Activation (%) (human GPR40 [1]; dose 6.00E-11 M): -7% | EC50 (human GPR40 [1]; individual replicates (n), read-out: HUMAN GPR40 Functional Assay EC50): 3.7 nM and 4.2 nM and 7.3 nM and 1.3 nM and 2.4 nM and 3.6 nM | Efficacy (% Activation), Human (human GPR40 [1]; [3]): (200%) | EC50 (human GPR40 [1]; mean ± SD, n = 2–20, IP accumulation, read-out: Potency [EC50, nM] ± SD, Human): 3.7 ± 1.9 nM | % Bound Normalized to 100 (human GPR40 [2]; dose 0.318285 nM): 102.20% | %Bound (human GPR40 [2]; dose 0.318285 nM): 108.18% | % Bound Normalized to 100 (human GPR40 [2]; dose 1.00578 nM): 103.34% | %Bound (human GPR40 [2]; dose 1.00578 nM): 109.31% | % Bound Normalized to 100 (human GPR40 [2]; dose 3.17827 nM): 130.10% | %Bound (human GPR40 [2]; dose 3.17827 nM): 136.07% | % Bound Normalized to 100 (human GPR40 [2]; dose 10.0433 nM): 137.50% | %Bound (human GPR40 [2]; dose 10.0433 nM): 143.47% | % Bound Normalized to 100 (human GPR40 [2]; dose 31.7369 nM): 182.19% | %Bound (human GPR40 [2]; dose 31.7369 nM): 188.17% | % Bound Normalized to 100 (human GPR40 [2]; dose 100.289 nM): 189.31% | %Bound (human GPR40 [2]; dose 100.289 nM): 195.29% | % Bound Normalized to 100 (human GPR40 [2]; dose 316.912 nM): 199.27% | %Bound (human GPR40 [2]; dose 316.912 nM): 205.25% | % Bound Normalized to 100 (human GPR40 [2]; dose 1001.44 nM): 201.84% | %Bound (human GPR40 [2]; dose 1001.44 nM): 207.81% | % Bound Normalized to 100 (human GPR40 [2]; dose 3164.56 nM): 204.40% | %Bound (human GPR40 [2]; dose 3164.56 nM): 210.37% | % Bound Normalized to 100 (human GPR40 [2]; dose 10000 nM): 189.59% | %Bound (human GPR40 [2]; dose 10000 nM): 195.57%
Structure (SMILES): COc1ccc(F)c(-c2ccc(COc3cccc([C@@H](CC(=O)O)C4CC4)c3)cc2C2=CCCC2(C)C)c1 [AM-1638, reference compound]
HUMAN GPR40 Functional Assay %Act (human GPR40 [1]; individual replicates (n)): 245% and 240% and 164% and 211% and 215% and 163%
